Experimental findings from US7468393B2, “Diarylsulfones as 5-HT2A antagonists” (Merck Sharp & Dohme Ltd., priority 2004, dated 2008) are described below.

For orientation: melting point means the temperature of the solid-liquid transition. As for `C[C@H](O)c1ccccc1S(=O)(=O)c1ccc(/C=C/c2ccc(F)cc2)cc1` [Example 135, (1S)-1-[2-({4-[(E)-2-(4-fluorophenyl)vinyl]phenyl}sulfonyl)phenyl]ethanol], the melting point is 75 °C.
